Relative viability data for 8 cell lines are collected here from the supplement of paper PMC10307832.

Assay in all cases: relative viability (nuclei count vs DMSO), 5 days (fraction); higher = more cells survive
Compound in the test “DM3189 + Tozasertib”: C1CN(CCN1)C2=CC=C(C=C2)C3=CN4C(=C(C=N4)C5=CC=NC6=CC=CC=C56)N=C3 [DM3189] + Cc1cc(Nc2cc(N3CCN(C)CC3)nc(Sc3ccc(NC(=O)C4CC4)cc3)n2)n[nH]1 [Tozasertib] (partner 0.1 µM)
An outline of the steps:
(§1)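 Lung cancer cell lines were seeded in 1536-well plates and dosed by pin tool the next day, with either a single drug or a fixed anchor-drug dose combined with five library-drug doses (not always all listed) spaced in √10 steps. Five days later, one step fixed the cells and stained their nuclei (final 0.05% Triton X-100, 1% formaldehyde, 1 ug/ml Hoechst), and nuclei were counted on 4× images. Relative viability is the nuclei count in treated wells divided by the count in vehicle wells, and each value is the median of duplicate plates.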

Compound in the test “DM3189 + Bortezomib”: C1CN(CCN1)C2=CC=C(C=C2)C3=CN4C(=C(C=N4)C5=CC=NC6=CC=CC=C56)N=C3 [DM3189] + CC(C)C[C@H](NC(=O)[C@H](Cc1ccccc1)NC(=O)c1cnccn1)B(O)O [Bortezomib] (partner 0.002 µM)
The procedure, abridged:
as §1

Compound in the test “DM3189 + Palbociclib”: C1CN(CCN1)C2=CC=C(C=C2)C3=CN4C(=C(C=N4)C5=CC=NC6=CC=CC=C56)N=C3 [DM3189] + CC(=O)c1c(C)c2cnc(Nc3ccc(N4CCNCC4)cn3)nc2n(C2CCCC2)c1=O [Palbociclib] (partner 0.5 µM)
An outline of the steps: as §1

Compound in the test “DM3189 + OSI-027”: C1CN(CCN1)C2=CC=C(C=C2)C3=CN4C(=C(C=N4)C5=CC=NC6=CC=CC=C56)N=C3 [DM3189] + COc1cccc2cc(-c3nc([C@H]4CC[C@H](C(=O)O)CC4)n4ncnc(N)c34)[nH]c12 [OSI-027] (partner 0.5 µM)
The procedure, abridged:
as §1

Compound in the test “DM3189 + Pemetrexed”: C1CN(CCN1)C2=CC=C(C=C2)C3=CN4C(=C(C=N4)C5=CC=NC6=CC=CC=C56)N=C3 [DM3189] + Nc1nc2[nH]cc(CCc3ccc(C(=O)N[C@@H](CCC(=O)O)C(=O)O)cc3)c2c(=O)[nH]1 [Pemetrexed] (partner 0.2 µM)
The procedure, abridged: as §1

For PC-14, the relative viability in the test with DM3189 + Tozasertib (first compound 0.08 µM) is 0.547; with DM3189 + Tozasertib (first compound 0.253 µM), 0.522; with DM3189 + Tozasertib (first compound 0.8 µM), 0.567; with DM3189 + Tozasertib (first compound 2.53 µM), 0.606; with DM3189 + Bortezomib (first compound 0.08 µM) it was 0.832; with DM3189 + Bortezomib (first compound 0.253 µM), 0.885. The relative viability with DM3189 + Bortezomib (first compound 0.8 µM) is 0.832; in the test with DM3189 + Bortezomib (first compound 2.53 µM) it was 0.812; with DM3189 + Palbociclib (first compound 0.08 µM), 0.591; with DM3189 + Palbociclib (first compound 0.253 µM), 0.458; in the test with DM3189 + Palbociclib (first compound 0.8 µM) it was 0.465; in the test with DM3189 + Palbociclib (first compound 2.53 µM) it was 0.449. Further, the relative viability is 1.05 with DM3189 + OSI-027 (first compound 0.08 µM); 0.837 with DM3189 + OSI-027 (first compound 0.253 µM); 0.76 in the test with DM3189 + OSI-027 (first compound 0.8 µM); 0.946 in the test with DM3189 + OSI-027 (first compound 2.53 µM); 0.142 in the test with DM3189 + Pemetrexed (first compound 0.08 µM); 0.125 in the test with DM3189 + Pemetrexed (first compound 0.253 µM). Also, the figures for the relative viability with DM3189 + Pemetrexed (first compound 0.8 µM) and with DM3189 + Pemetrexed (first compound 2.53 µM) were 0.14 and 0.122, respectively.
With NCI-H322M, the relative viability in the test with DM3189 + Tozasertib (first compound 0.08 µM) was 0.481; with DM3189 + Tozasertib (first compound 0.253 µM) it was 0.427; in the test with DM3189 + Tozasertib (first compound 0.8 µM) it was 0.448; in the test with DM3189 + Tozasertib (first compound 2.53 µM) it was 0.404; with DM3189 + Bortezomib (first compound 0.08 µM), 1.25; with DM3189 + Bortezomib (first compound 0.253 µM), 1.38. For the same cell line, the relative viability was 1.19 with DM3189 + Bortezomib (first compound 0.8 µM); 1.23 with DM3189 + Bortezomib (first compound 2.53 µM); 0.501 in the test with DM3189 + Palbociclib (first compound 0.08 µM); 0.489 with DM3189 + Palbociclib (first compound 0.253 µM); 0.516 with DM3189 + Palbociclib (first compound 0.8 µM); 0.43 in the test with DM3189 + Palbociclib (first compound 2.53 µM). Also, the relative viability is 0.622 with DM3189 + OSI-027 (first compound 0.08 µM); 0.596 with DM3189 + OSI-027 (first compound 0.253 µM); 0.541 with DM3189 + OSI-027 (first compound 0.8 µM); 0.506 in the test with DM3189 + OSI-027 (first compound 2.53 µM); 0.64 with DM3189 + Pemetrexed (first compound 0.08 µM); 0.582 in the test with DM3189 + Pemetrexed (first compound 0.253 µM). Moreover, the relative viability was found to be 0.557 in the test with DM3189 + Pemetrexed (first compound 0.8 µM) and 0.501 with DM3189 + Pemetrexed (first compound 2.53 µM).
Take SK-MES-1: the relative viability with DM3189 + Tozasertib (first compound 0.08 µM) was 0.901; with DM3189 + Tozasertib (first compound 0.253 µM), 0.831; with DM3189 + Tozasertib (first compound 0.8 µM), 0.687; with DM3189 + Tozasertib (first compound 2.53 µM), 0.87; with DM3189 + Palbociclib (first compound 0.08 µM), 0.236; with DM3189 + Palbociclib (first compound 0.253 µM), 0.26. In addition, the relative viability turned out to be 0.343 with DM3189 + Palbociclib (first compound 0.8 µM); 0.305 with DM3189 + Palbociclib (first compound 2.53 µM); 0.602 with DM3189 + OSI-027 (first compound 0.08 µM); 0.53 in the test with DM3189 + OSI-027 (first compound 0.253 µM); 0.523 with DM3189 + OSI-027 (first compound 0.8 µM); 0.481 with DM3189 + OSI-027 (first compound 2.53 µM). The relative viability with DM3189 + Pemetrexed (first compound 0.08 µM) was 1.12; in the test with DM3189 + Pemetrexed (first compound 0.253 µM) it was 0.962; with DM3189 + Pemetrexed (first compound 0.8 µM) it was 0.822; in the test with DM3189 + Pemetrexed (first compound 2.53 µM), 0.849.
For the cell line NCI-H1944, the relative viability in the test with DM3189 + Tozasertib (first compound 0.08 µM) amounted to 0.275; with DM3189 + Tozasertib (first compound 0.253 µM), 0.273; with DM3189 + Tozasertib (first compound 2.53 µM), 0.267; with DM3189 + Palbociclib (first compound 0.08 µM) it was 0.351; with DM3189 + Palbociclib (first compound 0.253 µM) it was 0.327; with DM3189 + Palbociclib (first compound 0.8 µM), 0.288. For the same cell line, the relative viability in the test with DM3189 + Palbociclib (first compound 2.53 µM) was found to be 0.301; with DM3189 + OSI-027 (first compound 0.08 µM), 0.513; in the test with DM3189 + OSI-027 (first compound 0.253 µM), 0.397; with DM3189 + OSI-027 (first compound 2.53 µM) it was 0.461; with DM3189 + Pemetrexed (first compound 0.08 µM) it was 0.661; in the test with DM3189 + Pemetrexed (first compound 0.253 µM), 0.603. Moreover, the relative viability with DM3189 + Pemetrexed (first compound 0.8 µM) stood at 0.603; with DM3189 + Pemetrexed (first compound 2.53 µM), 0.675.
Regarding LK-2, the relative viability was determined as 0.183 with DM3189 + Tozasertib (first compound 0.08 µM); 0.187 with DM3189 + Tozasertib (first compound 0.253 µM); 0.185 in the test with DM3189 + Tozasertib (first compound 0.8 µM); 0.166 in the test with DM3189 + Tozasertib (first compound 2.53 µM); 0.51 in the test with DM3189 + Palbociclib (first compound 0.08 µM); 0.393 in the test with DM3189 + Palbociclib (first compound 0.253 µM). Moreover, the relative viability with DM3189 + Palbociclib (first compound 0.8 µM) was 0.387; in the test with DM3189 + Palbociclib (first compound 2.53 µM), 0.243; with DM3189 + OSI-027 (first compound 0.08 µM), 0.193; with DM3189 + OSI-027 (first compound 0.253 µM), 0.155; in the test with DM3189 + OSI-027 (first compound 0.8 µM), 0.159; with DM3189 + OSI-027 (first compound 2.53 µM) it was 0.174. In addition, the relative viability with DM3189 + Pemetrexed (first compound 0.08 µM) came out at 0.283; in the test with DM3189 + Pemetrexed (first compound 0.253 µM), 0.198; with DM3189 + Pemetrexed (first compound 0.8 µM) it was 0.197; with DM3189 + Pemetrexed (first compound 2.53 µM), 0.183.
Take RERF-LC-KJ: the relative viability in the test with DM3189 + Tozasertib (first compound 0.08 µM) stood at 0.533; in the test with DM3189 + Tozasertib (first compound 0.253 µM), 0.456; with DM3189 + Tozasertib (first compound 0.8 µM), 0.466; with DM3189 + Tozasertib (first compound 2.53 µM) it was 0.43; with DM3189 + Bortezomib (first compound 0.08 µM), 1.61; in the test with DM3189 + Bortezomib (first compound 0.253 µM) it was 1.21. Also, the relative viability with DM3189 + Bortezomib (first compound 0.8 µM) came out at 1.15; in the test with DM3189 + Bortezomib (first compound 2.53 µM) it was 1.26; in the test with DM3189 + Palbociclib (first compound 0.08 µM), 1.31; in the test with DM3189 + Palbociclib (first compound 0.253 µM) it was 1.27; with DM3189 + Palbociclib (first compound 0.8 µM), 0.989; with DM3189 + Palbociclib (first compound 2.53 µM), 1.03. Further, the relative viability with DM3189 + OSI-027 (first compound 0.08 µM) turned out to be 0.666; in the test with DM3189 + OSI-027 (first compound 0.253 µM) it was 0.59; in the test with DM3189 + OSI-027 (first compound 0.8 µM), 0.586; with DM3189 + OSI-027 (first compound 2.53 µM) it was 0.601; in the test with DM3189 + Pemetrexed (first compound 0.08 µM) it was 0.461; in the test with DM3189 + Pemetrexed (first compound 0.253 µM) it was 0.471. The relative viability with DM3189 + Pemetrexed (first compound 0.8 µM) stood at 0.469; in the test with DM3189 + Pemetrexed (first compound 2.53 µM), 0.559.
COR-L23: the relative viability with DM3189 + Tozasertib (first compound 0.08 µM) was determined as 0.19; in the test with DM3189 + Tozasertib (first compound 0.253 µM) it was 0.196; in the test with DM3189 + Tozasertib (first compound 0.8 µM) it was 0.147; in the test with DM3189 + Tozasertib (first compound 2.53 µM), 0.187; in the test with DM3189 + Bortezomib (first compound 0.08 µM), 0.83; with DM3189 + Bortezomib (first compound 0.253 µM) it was 1.02. In addition, the relative viability with DM3189 + Bortezomib (first compound 0.8 µM) was 0.908; with DM3189 + Bortezomib (first compound 2.53 µM), 0.746; in the test with DM3189 + Palbociclib (first compound 0.08 µM), 0.292; with DM3189 + Palbociclib (first compound 0.253 µM), 0.242; in the test with DM3189 + Palbociclib (first compound 0.8 µM) it was 0.201; with DM3189 + Palbociclib (first compound 2.53 µM) it was 0.192. The relative viability in the test with DM3189 + OSI-027 (first compound 0.08 µM) was 0.887; in the test with DM3189 + OSI-027 (first compound 0.253 µM), 0.715; with DM3189 + OSI-027 (first compound 0.8 µM), 0.576; with DM3189 + OSI-027 (first compound 2.53 µM) it was 0.625; with DM3189 + Pemetrexed (first compound 0.08 µM), 0.181; in the test with DM3189 + Pemetrexed (first compound 0.253 µM), 0.179. Further, the relative viability is 0.174 with DM3189 + Pemetrexed (first compound 0.8 µM) and 0.21 in the test with DM3189 + Pemetrexed (first compound 2.53 µM).
NCI-H1355: the relative viability in the test with DM3189 + Tozasertib (first compound 0.08 µM) was 0.547; in the test with DM3189 + Tozasertib (first compound 0.253 µM), 0.55; in the test with DM3189 + Tozasertib (first compound 0.8 µM) it was 0.513; in the test with DM3189 + Tozasertib (first compound 2.53 µM) it was 0.438; in the test with DM3189 + Bortezomib (first compound 0.08 µM), 1.21; in the test with DM3189 + Bortezomib (first compound 0.253 µM), 1.22. Further, the relative viability is 0.992 with DM3189 + Bortezomib (first compound 0.8 µM); 1.17 with DM3189 + Bortezomib (first compound 2.53 µM); 0.357 in the test with DM3189 + Palbociclib (first compound 0.08 µM); 0.416 in the test with DM3189 + Palbociclib (first compound 0.253 µM); 0.349 with DM3189 + Palbociclib (first compound 0.8 µM); 0.387 with DM3189 + Palbociclib (first compound 2.53 µM). The relative viability came to 0.482 with DM3189 + OSI-027 (first compound 0.08 µM); 0.36 with DM3189 + OSI-027 (first compound 0.253 µM); 0.366 with DM3189 + OSI-027 (first compound 0.8 µM); 0.39 in the test with DM3189 + OSI-027 (first compound 2.53 µM); 1.03 with DM3189 + Pemetrexed (first compound 0.08 µM); 0.986 in the test with DM3189 + Pemetrexed (first compound 0.253 µM). The relative viability in the test with DM3189 + Pemetrexed (first compound 0.8 µM) worked out at 0.821; with DM3189 + Pemetrexed (first compound 2.53 µM), 1.03.
